# Measured values reported in patent publication US20100197625A1, “SYNTHETIC LIPOPHILIC INOSITOL GLYCANS FOR TREATMENT OF CANCER AND GLUCOSE-METABOLISM DISORDERS” (priority 2006, published 2010).
# What was measured:
# [1] = tested on: human umbilical vein endothelial cells (HUVEC); experiment: Cell death of human umbilical vein endothelial cells; format: cell-based; conditions: in 1 hour, with IG-1
# [2] = tested on: human hepatoma (HuH7); experiment: Cell proliferation / cell death assay, HuH7; format: cell-based; conditions: HuH7, in 24 hours after treatment
# Method: (§1) Human pancreatic cancer cell lines (Panc-1, MiaPaca2, BXPC3, Aspc 1), human hepatoma cell line (HuH7), human gastric cancer cell lines (AGS, MKN45), human colon cancer cell line (CoCM-1), human mammary cancer cell line (MCF-7), human neuroblastoma (SH-SY5Y), human prostate cancer cells (PC3), and murine Ehrlich ascites cancer cells and mouse 3T3-L1 fibroblasts were obtained from American Type Culture Collection (Rockville, Md., USA). The cancer cells were cultured in RPMI 1640 containing 10% fetal calf serum. Cultures were maintained at 37° C. in a humidified atmosphere of 5% CO2.
# (§2) Cell proliferation assays were performed with the CellTiter 96 AQueous One Solution Cell Proliferation Assay kit according to the manufacturer's instructions (Promega, Madison, Wis., USA). Briefly, 5×10^3 cells/well in medium were placed onto 96-well plates. IGs were added to cellular cultures at final concentrations of 0, 1, 10, and 100 μM. […] of CellTiter 96 AQueous One Solution Reagent, which contains a tetrazolium compound, 3-(4,5-dimethylthiazol-2-yl)-5-(3-carboxymethoxyphenyl)-2-(4-sulfophenyl)-2H-tetrazolium, an inner salt; MTS was added to the culture medium. After incubating the plate for 1 h in a CO2 incubator, absorbance at 490 nm was recorded with a 96-well plate reader.
# [3] = tested on: human neuroblastoma (SH-SY5Y); experiment: Cell proliferation / cell death assay, SH-SY5Y; format: cell-based; conditions: in 24 hours after treatment
# Method: as §1, §2
# [4] = tested on: human prostate cancer cells (PC3); experiment: Cell proliferation / cell death assay, PC3; format: cell-based; conditions: PC3, in 24 hours after treatment
# Method: as §1, §2
# [5] = tested on: human normal cultured cells; experiment: Proliferation of human normal cultured cells; format: cell-based; conditions: 1-100 μM, data not shown
# Method: Human primary culture cells, dermal fibroblasts, epidermal keratinocytes and umbilical vein endothelial cells were purchased from Cell Applications (San Diego, Calif., USA) and cultured according to the manufacturer's instructions.
# Cell proliferation assays were performed with the CellTiter 96 AQueous One Solution Cell Proliferation Assay kit according to the manufacturer's instructions (Promega, Madison, Wis., USA). Briefly, 5×10^3 cells/well in medium were placed onto 96-well plates. IGs were added to cellular cultures at final concentrations of 0, 1, 10, and 100 μM. Cultures were incubated for 3 days or 7 days and then added to 20 μL/well of CellTiter 96 AQueous One Solution Reagent, which contains a tetrazolium compound, 3-(4,5-dimethylthiazol-2-yl)-5-(3-carboxymethoxyphenyl)-2-(4-sulfophenyl)-2H-tetrazolium, an inner salt; MTS was added to the culture medium. After incubating the plate for 1 h in a CO2 incubator, absorbance at 490 nm was recorded with a 96-well plate reader.
# [6] = tested on: native rat adipocytes; experiment: Lipogenesis in native rat adipocytes; format: cell-based
# Method: Adipocytes were isolated from epididymal fat pads dissected from freshly sacrificed male Long-Evans rats and incorporation of [6-^3H]-glucose into triglycerides in response to treatment with inositol glycans or insulin was measured as previously described (Chakraborty, N. and M. d'Alarcao, Bioorganic & Medicinal Chemistry 13 (2005) 6732-6741).
# [7] = tested on: Panc-1 cells; experiment: Cell proliferation / cell death assay, Panc-1; format: cell-based, human; conditions: Panc-1, after 3 days (72 hours)
# Method: as §1, §2
# [8] = tested on: 3T3-L1 adipocytes; experiment: Glycogen synthesis in 3T3-L1 adipocytes; format: cell-based, mouse; conditions: 100 μM
# Method: (§3) 3T3-L1 fibroblasts were maintained in Dulbecco's modified Eagle's medium (DMEM) with 25 mM glucose plus 10% fetal bovine serum (FBS). Following 2 days at confluence, differentiation was initiated by the addition of DMEM containing 10% FBS, 167 nM insulin, […] dexamethasone, and 0.5 mM isobutylmethylxanthine. Three days later, the medium was replaced with DMEM plus 10% FBS and 167 nM insulin. After 2 more days, the medium was switched to DMEM plus 10% fetal bovine serum. Adipocytes were used 6-14 days after completion of the differentiation protocol, when >90% of the cells expressed the adipocyte phenotype. Prior to experiments, cells were washed two times with DMEM medium containing 5 mM glucose, 0.2% bovine serum albumin, 25 mM Hepes (pH 7.4), 100 units/ml penicillin, 100 units/ml streptomycin and 0.29 mg/ml glutamine, and were incubated in the same medium for 2 h. Glycogen and lipid synthesis were measured in 24-well dishes. […] The lipids were then extracted overnight with 5 ml of Betafluor (National Diagnostics), and glucose incorporation into lipid was measured by scintillation counting. 400 μl of the cell suspension was added to 600 μl of 50% KOH, and glycogen was precipitated and radioactivity was counted by a liquid scintillation counter
# [9] = tested on: 3T3-L1 adipocytes; experiment: Lipogenesis in 3T3-L1 adipocytes; format: cell-based, mouse; conditions: 100 μM
# Method: as §3
Structure (SMILES),proliferation of human normal cultured cells [5],cell death [7],"stimulation of lipogenesis ([6]; native rat adipocytes, 40 μM)",also measured
"CCCCC/C=C\C/C=C\C/C=C\C/C=C\CCCC(=O)O[C@H](COCCCCCCCCCCCCCCCCCC)COP(=O)(O)O [AAPA2, 1-0-alkyl (18:0)-2-0-acyl-(20:4)-sn-glycerol-phosphate]",–,–,–,effect on rapid cell death of HUVEC induced by IG-1 [1]: inhibits this rapid cell death
"CCCCCCCCCCCCCCCC(=O)O[C@@H]1C(O)C(O)[C@H](O)[C@H](O[C@H]2OC(CO)[C@@H](O)[C@H](O)C2N)C1OP(=O)(O)O (stereo partly drawn) [IG2, 2-Amino-2-deoxy-α-D-glucopyranosyl-(1→6)-2-palmitoyl-D-myo-inositol-1-phosphate]",no effect on the proliferation,–,–,"cancer cell death [2]: induced cancer cell death; cancer cell death [3]: induced cancer cell death; cancer cell death [4]: induced cancer cell death; EC50 ([6]; Adipocyte, rat isolated adipocytes, fit to receptor binding model, read-out: EC50 value for stimulation of lipogenesis): 2.5 µM; Emax ([6]; Adipocyte, rat isolated adipocytes, stimulation of lipogenesis, read-out: Amax (maximal effect)): 37%; stimulation of lipogenesis ([6]; rat isolated adipocytes, concentration series): stimulated lipogenesis"
"CCCCCCCCCCCCCCCC(=O)OC1[C@H](O)C(O)C(O)[C@H](O)[C@@H]1O[C@H]1OC(CO)[C@@H](O)[C@H](O)C1N (stereo partly drawn) [IG13, 2-Amino-2-deoxy-α-D-glucopyranosyl-(1→6)-1-palmitoyl-D-myo-inositol]",did not affect the proliferation,induced cancer cell death,little or no lipogenesis,–
"CCCCCCCCCCCCCCCC(=O)O[C@H]1[C@@H](O)[C@H](O)[C@@H](O)[C@H](O)[C@H]1O[C@H]1O[C@H](CO)[C@@H](O)[C@H](O)[C@H]1N [IG14, 2-Amino-2-deoxy-α-D-glucopyranosyl-(1→3)-2-palmitoyl-D-myo-inositol]",did not affect the proliferation,induced cancer cell death,little or no lipogenesis,–
"CCCCCCCCCCCCCCCC(=O)O[C@@H]1C(O)C(O[C@H]2OC(CO)[C@@H](O)[C@H](O)C2N)[C@@H](O)[C@@H](O)C1O (stereo partly drawn) [IG15, 2-Amino-2-deoxy-α-D-glucopyranosyl-(1→3)-1-palmitoyl-D-myo-inositol]",did not affect the proliferation,induced cancer cell death,little or no lipogenesis,glycogen synthesis [8]: stimulates; lipogenesis [9]: stimulates
